Columns and labels:
[1] = tested on: adhesion of Ramos cells to VCAM-1; experiment: Adhesion of Ramos cells to immobilized VCAM-1 (domains 1-3) (Ramos—VCAM-1 assay); type: cell-based; settings: Homo sapiens, Ramos, 1 h
Text: (§1) In Vitro Assay: Adhesion of Jurkat/Ramos Cells to Immobilized VCAM-1 (Domains 1-3)
(§2) Preparation of VCAM-1 (Extracellular Domains 1-3)
(§3) Complementary DNA (cDNA) encoding 7 domain form of VCAM-1 (GenBank accession #M60335) was obtained using Rapid-Screen™ cDNA library panels (OriGene Technologies, Inc) at Takara Gene Analysis Center (Shiga, Japan). The primers used were 5′-CCAAGGCAGAGTACGCAAAC-3′ (sense) and 5′-TGGCAGGTATTATTAAGGAG-3′ (antisense). PCR amplification of the 3 domain VCAM-1 cDNA was perform using Pfu DNA polymerase (Stratagene) with the following sets of primers: (U-VCAMd1-3) 5′-CCATATGGTACCTGATCAATTTAAAATCGAGACCACCCCAGAA-3′; (L-VCAMd1-3) 5′-CCATATAGCAATCCTAGGTCCAGGGGAGATCTCAACAGTAAA-3′. PCR cycle was 94° C. for 45 sec. 55° C. for 45 sec, 72° C. for 2 min, repeating 15 cycles. After the purification of the PCR product, the fragment was digested with KpnI-AvrII. The digested fragment was ligated into pBluescript IISK(−) (Strategene), which was linearized by digesting with KpnI-XhoI. The ligation was followed by transformation to a Dam/Dcm methylase-free E. coli strain SCS110 (Strategene) to create the donor plasmid pHH7. To direct VCAM-1 molecule into the insect cell secretory pathway, the VCAM-1 coding sequence was fused to signal peptide sequence of honeybee melittin. The resulting melittin-VCAM fusion was placed in correct orientation to the baculovirus polyhedrin promoter. Baculovirus transfer vector containing first 3-domain form VCAM-1 (pH 10) was constructed by ligation of 0.9 kb fragment from AvrII/Klenow/BclI digests of pH 7 into SalI/Klenow/BamHI digests of pMelBacB Invitrogen). Recombinant baculovirus was generated by using Bac-N-Blue™ Transfection kit (Invitrogen) according to the manufacture's instruction. The recombinant virus was amplified by infection to High-Five™ insect cells for 5-6 days, and virus titer was determined by plaque assay.
(§4) High-Five™ insect cells were pelleted in a 225 ml conical tube by centrifugation at 1000 rpm for 5 min. After discarding the supernatant, the pellet was resuspended in 1.5×10^9 pfu (MOI=5) of high-titer virus solution, followed by incubation for 1.5 hours at room temperature. The cells were pelleted again and washed once in fresh Express Five™ serum free medium. The cells were pelleted again and finally, resuspended in 200 ml of fresh Express Five TM medium, transferred to a 1,000 ml shaker flask, and incubated in a shaker at 27° C., 130 rpm, for 48 hours before the culture supernatant was collected. The purification of 3-domain form of VCAM-1 from the culture supernatant was performed by one-step anion exchange chromatography. Protein concentration was determined by using Coomassie protein assay reagent (Pierce) according to the manufacture's instruction.
(§5) Preparation of VCAM-1 Coated Microtiter Plates
(§6) Recombinant human VCAM-1 (extracellular domains 1-3) was dissolved at 1.0 μg/1 ml in PBS. Each well of the microtiter plates (Nalge Nunc International, Fluoro-nunc Cert, 437958) was coated with 100 μl of substrate or for background control with buffer alone for 15 hours at 4 C. After discarding the substrate solution, the wells were blocked using 150 μl per well of block solution Kirkegaard Perry Laboratories, 50-61-01) for 90 minutes. The plate was washed with wash buffer containing 24 mM Tris-HCl (pH 7.4), 137 mM NaCl, […] and 2 MM MnCl2 just before addition of the assay.
In Vitro Assay using Ramos Cells
Preparation of Fluorescence Labeled Ramos Cells:
(§7) Ramos cells (American Type Culture Collection, Clone CRL-1596) were cultured in RPMI 1640 medium (Nikken Bio Medical Laboratory, CM1101) supplemented with 10% fetal bovine serum (Hyclone, A-1119-L), 100 U/ml penicilin (Gibco BRL, 15140-122) and 100 μg/ml streptomycin (Gibco BRL, 15140-122) in a humidified incubator at 37° C. with 5% CO2. […]

[2] = tested on: adhesion of Jurkat cells to VCAM-1; experiment: Adhesion of Jurkat cells to immobilized VCAM-1 (domains 1-3) (Jurkat—VCAM-1 assay); type: cell-based, human
Text: as §1, §2, §3, §4, §5, §6
In Vitro Assay using Jurkat Cells
Preparation of Fluorescence Labeled Jurkat Cells:
as §7, with “Jurkat” for “Ramos”, “E6-1, ATCC TIB-152)” for “CRL-1596)”, “RPM” for “RPMI”

SMILES: COC(=O)c1ccccc1NC(=O)[C@H](CC(C)C)NC(=O)Cc1ccc(NC(=O)Nc2ccccc2C)cc1 [Example 15]
- melting point: 170 °C

SMILES: COC(=O)c1cccc(NC(=O)[C@H](CC(C)C)NC(=O)Cc2ccc(NC(=O)Nc3ccccc3C)cc2)c1 [Example 16]
- melting point: 220 °C

SMILES: COC(=O)c1ccc(NC(=O)[C@H](CC(C)C)NC(=O)Cc2ccc(NC(=O)Nc3ccccc3C)cc2)cc1 [Example 17, Methyl 4-([({4-[(2-toluidinocarbonyl)amino]phenyl}acetyl)L-leucin]amino)benzoate]
- melting point: 250 to 252 °C

SMILES: COC(=O)Cc1ccccc1NC(=O)[C@H](CC(C)C)NC(=O)Cc1ccc(NC(=O)Nc2ccccc2C)cc1 [Example 18]
- melting point: 218 °C

SMILES: COC(=O)Cc1cccc(NC(=O)[C@H](CC(C)C)NC(=O)Cc2ccc(NC(=O)Nc3ccccc3C)cc2)c1 [Example 19]
- melting point: 200 °C

SMILES: COC(=O)Cc1ccc(NC(=O)[C@H](CC(C)C)NC(=O)Cc2ccc(NC(=O)Nc3ccccc3C)cc2)cc1 [Example 20]
- melting point: 222 °C

SMILES: CCOC(=O)c1ccc(NC(=O)[C@H](CC(C)C)NC(=O)Cc2ccc(NC(=O)Nc3ccccc3C)cc2)c(Cl)c1 [Example 21]
- melting point: 163 to 165 °C

SMILES: CCOC(=O)c1ccc(NC(=O)[C@H](CC(C)C)NC(=O)Cc2ccc(NC(=O)Nc3ccccc3C)cc2)c(OC)c1 [Example 22]
- melting point: 139 to 141 °C

SMILES: COC(=O)c1ccc(NC(=O)[C@H](CC(C)C)NC(=O)Cc2ccc(NC(=O)Nc3ccccc3C)cc2)cc1Nc1ccccc1 [Example 24]
- melting point: 205 to 206 °C

SMILES: COC(=O)c1ccc(NC(=O)[C@H](CC(C)C)NC(=O)Cc2ccc(NC(=O)Nc3ccccc3C)cc2)cc1Oc1ccccc1 [Example 25]
- melting point: 191 to 195 °C

SMILES: COC(=O)c1cc(Cl)c(NC(=O)[C@H](CC(C)C)NC(=O)Cc2ccc(NC(=O)Nc3ccccc3C)cc2)cc1Cl [Example 26]
- melting point: 204 to 205 °C

SMILES: Cc1ccccc1NC(=O)Nc1ccc(CC(=O)N[C@@H](CC(C)C)C(=O)Nc2ccc(-c3nnn[nH]3)cc2)cc1 [Example 27]
- melting point: 255 to 257 °C
- IC50 [1]: 2000 to 10000 nM

SMILES: CCOC(=O)C(c1ccc(NC(=O)[C@H](CC(C)C)NC(=O)Cc2ccc(NC(=O)Nc3ccccc3C)cc2)cc1)C1CCCC1 (some centres unmarked) [Example 30]
- melting point: 186 to 189 °C

SMILES: CCOC(=O)Cc1csc(N(C)C(=O)[C@H](CC(C)C)NC(=O)Cc2ccc(NC(=O)Nc3ccccc3C)cc2)n1 [Example 33]
- melting point: 125 to 130 °C

SMILES: Cc1ccccc1NC(=O)Nc1ccc(CC(=O)N[C@@H](CCCCNC(=O)OCc2ccccc2)C(=O)Nc2ccc(C(=O)OCc3ccccc3)cc2)cc1 [Example 35]
- melting point: 188 to 189 °C

SMILES: COCCCN(CC(=O)Nc1ccc(C(=O)OC)cc1)C(=O)Cc1ccc(NC(=O)Nc2ccccc2C)cc1 [Example 36]
- melting point: 197 to 198 °C

SMILES: Cc1ccccc1NC(=O)Nc1ccc(CC(=O)N[C@@H](CC(C)C)C(=O)Nc2ccccc2C(=O)O)cc1 [Example 39]
- melting point: 190 °C
- IC50 ([2]; Homo sapiens, Jurkat, 1 h): > 10 µM

SMILES: Cc1ccccc1NC(=O)Nc1ccc(CC(=O)N[C@@H](CC(C)C)C(=O)Nc2cccc(C(=O)O)c2)cc1 [Example 40]
- melting point: 220 °C
- IC50 ([2]; Homo sapiens, Jurkat, 1 h): > 10 µM

SMILES: Cc1ccccc1NC(=O)Nc1ccc(CC(=O)N[C@@H](CC(C)C)C(=O)Nc2ccc(C(=O)O)cc2)cc1 [Example 41]
- melting point: 219 to 223 °C
- IC50 ([2]; Homo sapiens, Jurkat, 1 h): < 0.5 µM

SMILES: Cc1ccccc1NC(=O)Nc1ccc(CC(=O)N[C@@H](CC(C)C)C(=O)Nc2ccccc2CC(=O)O)cc1 [Example 42]
- melting point: 186 to 190 °C
- IC50 ([2]; Homo sapiens, Jurkat, 1 h): > 10 µM

SMILES: Cc1ccccc1NC(=O)Nc1ccc(CC(=O)N[C@@H](CC(C)C)C(=O)Nc2cccc(CC(=O)O)c2)cc1 [Example 43]
- melting point: 178 to 181 °C
- IC50 ([2]; Homo sapiens, Jurkat, 1 h): 0.5 to 2 µM

SMILES: Cc1ccccc1NC(=O)Nc1ccc(CC(=O)N[C@@H](CC(C)C)C(=O)Nc2ccc(CC(=O)O)cc2)cc1 [Example 44]
- melting point: 206 °C
- IC50 ([2]; Homo sapiens, Jurkat, 1 h): 2 to 10 µM

SMILES: Cc1ccccc1NC(=O)Nc1ccc(CC(=O)N[C@@H](CC(C)C)C(=O)Nc2ccc(C(=O)O)cc2Cl)cc1 [Example 45]
- melting point: 154 to 158 °C
- IC50 ([2]; Cell Type Jurkat, adhesion to VCAM-1 coated plates, 1 hour at 37 C, IC50 value ranges): A-B

SMILES: COc1cc(C(=O)O)ccc1NC(=O)[C@H](CC(C)C)NC(=O)Cc1ccc(NC(=O)Nc2ccccc2C)cc1 [Example 46]
- melting point: 138 to 142 °C
- IC50 [1]: > 10000 nM

SMILES: Cc1ccccc1NC(=O)Nc1ccc(CC(=O)N[C@@H](CC(C)C)C(=O)Nc2ccc(C(=O)O)c(Cl)c2)cc1 [Example 47]
- melting point: 178 to 180 °C
- IC50 [1]: < 500 nM

SMILES: Cc1ccccc1NC(=O)Nc1ccc(CC(=O)N[C@@H](CC(C)C)C(=O)Nc2ccc(C(=O)O)c(Nc3ccccc3)c2)cc1 [Example 48]
- melting point: 164 to 169 °C
- IC50 [1]: < 500 nM

SMILES: Cc1ccccc1NC(=O)Nc1ccc(CC(=O)N[C@@H](CC(C)C)C(=O)Nc2ccc(C(=O)O)c(Oc3ccccc3)c2)cc1 [Example 49]
- melting point: 158 to 160 °C
- IC50 [1]: < 500 nM

SMILES: Cc1ccccc1NC(=O)Nc1ccc(CC(=O)N[C@@H](CC(C)C)C(=O)Nc2cc(Cl)c(C(=O)O)cc2Cl)cc1 [Example 50]
- melting point: 185 to 188 °C
- IC50 [1]: 2000 to 10000 nM

SMILES: Cc1ccccc1NC(=O)Nc1ccc(CC(=O)N[C@@H](CC(C)C)C(=O)Nc2cc(C(=O)O)cc([N+](=O)[O-])c2)cc1 [Example 51]
- melting point: 188 to 190 °C
- IC50 [1]: 2000 to 10000 nM

SMILES: Cc1ccccc1NC(=O)Nc1ccc(CC(=O)N[C@@H](CC(C)C)C(=O)N2CCCc3cc(C(=O)O)ccc32)cc1 [Example 52]
- IC50 [1]: 2000 to 10000 nM

SMILES: Cc1ccccc1NC(=O)Nc1ccc(CC(=O)N[C@@H](CC(C)C)C(=O)Nc2ccc(C(C(=O)O)C3CCCC3)cc2)cc1 (some centres unmarked) [Example 53]
- melting point: 206 to 208 °C
- IC50 ([2]; Homo sapiens, Jurkat, 1 h): 2 to 10 µM

SMILES: Cc1ccccc1NC(=O)Nc1ccc(CC(=O)N[C@@H](CC(C)C)C(=O)Nc2nc(CC(=O)O)cs2)cc1 [Example 54]
- melting point: 178 to 180 °C
- IC50 ([2]; Homo sapiens, Jurkat, 1 h): 2 to 10 µM

SMILES: Cc1ccccc1NC(=O)Nc1ccc(CC(=O)N[C@@H](CC(C)C)C(=O)Nc2nnc(CC(=O)O)s2)cc1 [Example 55]
- melting point: 187 to 189 °C
- IC50 ([2]; Homo sapiens, Jurkat, 1 h): 2 to 10 µM

SMILES: Cc1ccccc1NC(=O)Nc1ccc(CC(=O)N[C@@H](CC(C)C)C(=O)N(C)c2nc(CC(=O)O)cs2)cc1 [Example 56]
- melting point: 172 to 174 °C
- IC50 [1]: > 10000 nM

SMILES: Cc1ccccc1NC(=O)Nc1ccc(CC(=O)N[C@@H](CC(C)C)C(=O)Nc2ccc3[nH]c(C(=O)O)cc3c2)cc1 [Example 57]
- IC50 ([2]; Homo sapiens, Jurkat, 1 h): > 10 µM

SMILES: Cc1ccccc1NC(=O)Nc1ccc(CC(=O)N[C@@H](CC(C)C)C(=O)NC2CCC(C(=O)O)CC2)cc1 (some centres unmarked) [Example 60]
- melting point: 175 °C (dec.)
- IC50 ([2]; Homo sapiens, Jurkat, 1 h): 2 to 10 µM

SMILES: Cc1ccccc1NC(=O)Nc1ccc(CC(=O)N[C@@H](CC(C)C)C(=O)NC2CCCCC2C(=O)O)cc1 (some centres unmarked) [Example 61]
- IC50 [1]: 2000 to 10000 nM
